# Experimental data from patent publication US10815275B2, “Antimicrobial peptoids with improved selectivity and use thereof” (priority 2018, dated 2020).
# Non-standard residues stand in square brackets, D forms with d. Residues, ends and D or L forms follow the SMILES beside them. Nspe = C[C@H](NCC(=O)O)c1ccccc1; Nlys = NCCCCNCC(=O)O
# What was measured:
# in vitro = assay type: cell-based; conditions: concentration indicating 50% survival, 24 h, MTS; read-out: LC50
# How it was run: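 Human lung […] cells, 1.3×10^4 per well in DMEM with 10% FBS, incubated overnight, then treated 24 h with 2-fold serially diluted peptoid at 37° C, 5% CO2. MTS added for 4 hours, absorbance 490 nm; % survival relative to untreated control cells.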
# [1] = Metabolic stability in human liver S9 fraction, HPLC; assay type: in vitro ADME; conditions: 37° C., after 24 hours
# Experimental: In order to identify metabolic stability of the peptoids synthesized in Preparation Example 1, such peptoids were subjected to enzymatic reaction using S9 fraction which is a mixture of human liver tissue-extracted metabolic enzymes. Thereafter, for the reaction products, metabolites were quantitated using HPLC.
# Specifically, Peptoid NOS. 1 and 4, and Pexiganan as a peptide control (40 μL each, 100 μM) were treated with […], 3.3 mM MgCl2, and 1.3 mM NADPH buffer (306 μL, pH=7.4), to prepare respective samples. The respective samples were treated with S9 fraction (2 μL, 0.1 mg/mL) and then incubated at a temperature of 37° C. When 0, 1, 4, and 24 hours had elapsed after treatment with the S9 fraction, 40 μL of each sample was taken out, and acetonitrile containing the same amount of 0.1% trifluoroacetic acid was used to stop activity of enzymes contained in the S9 fraction. Thereafter, proteins precipitated with acetonitrile were centrifuged at a condition of 1,000×g for 10 minutes at a temperature of 4° C. Then, supernatant was analyzed by HPLC to identify an amount of the remaining peptoid which had not been degraded by the enzymes in the S9 fraction.
# E. coli = assay: Selectivity analysis, HD10 divided by MIC for E. coli; conditions: HD10 of Table 6 divided by MIC for E. coli ATCC25922
# Experimental: In order to identify changes in selectivity depending on alteration of degree of folding in helical structure of peptoids, selectivity of each peptoid was calculated using the resultant values measured in the Experimental Examples 1 and 2. The selectivity was obtained by dividing the HD10 value by the minimum inhibitory concentration for E. coli (Table 8).
# B. subtilis = assay type: cell-based; conditions: LB medium, 18 h
# How it was run: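 B. subtilis or E. coli DH5α grown 18 h at 37 °C in LB, diluted to 2×10^5 CFU/mL and exposed to 2-fold serial peptoid dilutions for 18 h at 37 °C. Growth read by A600; MIC taken as lowest concentration fully suppressing growth, averaged over three independent experiments.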
# red blood cells = assay: Hemolytic activity on red blood cells; assay type: cell-based, mouse
# How it was run: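 Washed mouse red blood cells (10% v/v in PBS, pH 7.4) incubated with peptoids for 1 h at 37 °C; released haemoglobin read at 540 nm. % hemolysis normalised to 0.1% Triton X-100 (100%) and PBS blank; HD10, HD50 derived, Hmax taken at 200 μM top concentration.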
smiles,measurement,setting,value
C[C@@H](c1ccccc1)N(CC(N)=O)C(=O)CN(C(=O)CN(CCCCN)C(=O)CN(C(=O)CN(C(=O)CN(CCCCN)C(=O)CN(C(=O)CN(C(=O)CN(CCCCN)C(=O)CN(C(=O)CN(C(=O)CNCCCCN)[C@@H](C)c1ccccc1)[C@@H](C)c1ccccc1)[C@@H](C)c1ccccc1)[C@@H](C)c1ccccc1)[C@@H](C)c1ccccc1)[C@@H](C)c1ccccc1)[C@@H](C)c1ccccc1 [compound 1] (H-[Nlys][Nspe][Nspe][Nlys][Nspe][Nspe][Nlys][Nspe][Nspe][Nlys][Nspe][Nspe]-NH2),CC50 at 24 h,in vitro,8 µM
same,remaining amount after S9 fraction treatment,"[1]; human liver S9 fraction, 1440 min",about 64%
same,"remaining at 24 h, 11.5 μM","[1]; human, s9, pH 7.4, human liver S9 fraction, read-out: remaining amount after S9 fraction treatment",≥ 60%
same,Selectivity [HD10/MIC (E. coli)],E. coli,0.4
same,MIC B. subtilis,B. subtilis,0.8 µM
same,Hmax (%),"red blood cells; Table 6, hemolysis rate at 200 μM",113.4 ± 2.0%
same,HD10,"red blood cells; Table 6, peptoid concentration causing 10% hemolysis, highest concentration 200 μM, in µM (unit assumed)",1.2
same,HD50,"red blood cells; Table 6, peptoid concentration causing 50% hemolysis, highest concentration 200 μM, in µM (unit assumed)",42.8
same,Hmax (%),"red blood cells; Table 13, hemolysis rate at highest concentration 200 μM",100%
